In this test the target is B-Raf (V600E)-kinase (Homo sapiens (Human), UniProt P15056, V600E). In words: Kinase test B-Raf (V600E). To be noted: 1 h preincubation, 250 μM ATP. The test is classed as biochemical. The procedure: In a dilution series 10 μL/well of test substance solution are placed in a multiwell plate. The dilution series is selected so that generally a range of concentrations of 2 μM to 0.119 nM or 0.017 nM is covered. If necessary the initial concentration of 2 μM is changed to 50 μM, 10 μM or 0.4 μM or 0.2857 μM and further dilution is carried out accordingly. The final concentration of DMSO is 5%. 10 μL/well of the B-Raf (V600E)-kinase solution are pipetted in (containing 0.5 ng B-Raf (V600E)-kinase (e.g. from Upstate) in 20 mM Tris-HCl pH 7.5, 0.1 mM EDTA, 0.1 mM EGTA, 0.286 mM sodium orthovanadate, 10% glycerol, 1 mg/mL bovine serum albumin, 1 mM dithiothreitol) and the mixture is incubated for 1 h at RT under with shaking. The kinase reaction is started by the addition of 20 μL/well ATP solution [final concentration: 250 μM ATP, 30 mM Tris-HCl pH 7.5, 0.02% Brij, 0.2 mM sodium orthovanadate, 10 mM magnesium acetate, 0.1 mM EGTA, phosphatase cocktail (Sigma, #P2850, dilution recommended by the manufacturer)] and 10 μL/well MEK1 solution [containing 50 ng biotinylated MEK1 (prepared from purified MEK1 according to standard procedure, e.g. with EZ-Link Sulpho-NHS-LC-Biotin reagent, Pierce, #21335)] and carried out for 60 min at RT with constant shaking. The reaction is stopped by the addition of 12 μL/well of a 100 mM EDTA solution and incubation is continued for a further 5 min. 55 μL/well of the reaction solution are transferred into a streptavidin-coated plate (e.g. Streptawell HighBond, Roche, #11989685001) and shaken gently for 1 h at RT, in order to bind biotinylated MEK1 to the plate. After elimination of the liquid the plate is washed five times with 200 μL/well of 1×PBS and 100 μL/well solution of primary antibody plus europium-labelled secondary antibody [Anti Phospho-MEK (Ser217/221), Cell Signaling, #9121 and Eu-N1 labelled goat-anti-rabbit antibody, Perkin Elmer, #AD0105] is added, the primary antibody is diluted 1:2000 and the secondary antibody is diluted to 0.4-0.5 μg/mL in Delfia Assay Buffer (Perkin Elmer, #1244-111). After 1 h shaking at RT the solution is poured away and washed five times with 200 μL/well Delfia Wash Buffer (Perkin Elmer, #4010-0010/#1244-114). After the addition of 200 μL/well Enhancement Solution (Perkin Elmer, #4001-0010/#1244-105) the mixture is shaken for 10 min at RT and then measured in a Wallac Victor using the program “Delfia Time Resolved Fluorescence (Europium)”. IC50 values are obtained from these dosage-activity curves using a software program (GraphPadPrizm).

Each structure is given as a SMILES string.

Sequence of B-Raf (V600E)-kinase (P15056 whole entry V600E): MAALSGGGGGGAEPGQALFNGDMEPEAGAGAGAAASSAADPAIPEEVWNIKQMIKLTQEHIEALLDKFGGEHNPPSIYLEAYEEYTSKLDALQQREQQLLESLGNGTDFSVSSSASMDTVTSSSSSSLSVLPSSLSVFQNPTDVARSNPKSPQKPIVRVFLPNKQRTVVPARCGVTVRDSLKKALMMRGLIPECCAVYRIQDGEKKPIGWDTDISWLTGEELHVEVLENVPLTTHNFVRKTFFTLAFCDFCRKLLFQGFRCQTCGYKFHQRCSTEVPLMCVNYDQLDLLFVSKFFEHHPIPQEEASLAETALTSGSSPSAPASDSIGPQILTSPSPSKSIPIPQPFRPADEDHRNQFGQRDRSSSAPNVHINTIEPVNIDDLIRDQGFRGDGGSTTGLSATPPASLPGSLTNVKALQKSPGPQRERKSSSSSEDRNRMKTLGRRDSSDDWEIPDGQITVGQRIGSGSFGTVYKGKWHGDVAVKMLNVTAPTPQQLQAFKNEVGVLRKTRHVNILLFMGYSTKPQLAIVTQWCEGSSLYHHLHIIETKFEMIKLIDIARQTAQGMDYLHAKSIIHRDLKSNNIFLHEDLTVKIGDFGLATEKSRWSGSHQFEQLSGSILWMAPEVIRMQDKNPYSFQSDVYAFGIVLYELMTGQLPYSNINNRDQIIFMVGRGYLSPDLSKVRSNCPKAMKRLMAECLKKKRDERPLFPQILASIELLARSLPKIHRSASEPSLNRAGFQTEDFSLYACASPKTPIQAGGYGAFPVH

`Cc1ccc(C(=O)Nc2cc(C(C)(C)C)on2)cc1-n1cc(-c2cncc(NC(C)C)c2)nn1` [I-14] returned an IC50 of 0.017 µM.
`Cc1ccc(NC(=O)c2cc(CN(C)CCN(C)C)c(C(C)(C)C)o2)cc1-n1cc(-c2cncc(N3CCOCC3)c2)nn1` [II-43] showed an IC50 of 0.036 µM.
Turning to `COCC(C)Nc1cncc(-c2cn(-c3cc(C(=O)Nc4cc(C(C)(C)C)on4)ccc3C)nn2)c1` (stereo not shown) [I-20], the concentration for half-maximal inhibition (IC50) turned out to be 0.031 µM. The IC50 values of the last two compounds are within 1.5-fold of each other.
Under `Cc1ccc(NC(=O)c2cc(C(F)(F)F)ccn2)cc1-n1cc(-c2cncc(N3CCOCC3)c2)nn1` [II-1] stands 0.009 µM; under `Cc1ccc(C(=O)Nc2cc(C(C)(C)C)on2)cc1-n1cc(-c2cncc(NC3CCOC3)c2)nn1` (stereo not shown) [I-11], 0.006 µM; under `Cc1ccc(C(=O)Nc2cc(C(C)(C)C)on2)cc1-n1cc(-c2cncc(N3CCN(C(C)C)C(C)C3)c2)nn1` (stereo not shown) [I-37], 0.02 µM.
Take `CCOCCN1CCN(c2cncc(-c3cn(-c4cc(NC(=O)c5ccc(C(C)(C)C)s5)ccc4C)nn3)c2)CC1` [II-28]: the IC50 worked out at 0.01 µM.
The same measure for `Cc1ccc(C(=O)Nc2cc(C(F)(F)F)ccn2)cc1-n1cc(-c2cncc(NCCN(C)C)c2)nn1` [I-85]: 0.01 µM; for `Cc1ccc(C(=O)Nc2cc(C(F)(F)F)ccn2)cc1-n1cc(-c2cncc(N(C)CCN3CCCC3)c2)nn1` [I-65]: 0.009 µM; for `CCCN1CCN(c2cncc(-c3cn(-c4cc(NC(=O)c5ccc(C(C)(C)C)s5)ccc4C)nn3)c2)CC1` [II-25]: 0.009 µM.
`Cc1ccc(C(=O)Nc2cc(C(C)(C)C)on2)cc1-n1cc(-c2cncc(N3CCN(C(C)C)CC3)c2)nn1` [I-44] displayed an IC50 of 0.011 µM.
As to `Cc1ccc(C(=O)Nc2cc(C(F)(F)F)ccn2)cc1-n1cc(-c2cncc(N3CCN(C)CC3)c2)nn1` [I-83], it took 0.007 µM to reach half-maximal inhibition (IC50).
Take `Cc1ccc(C(=O)Nc2cc(C(C)(C)C)on2)cc1-n1cc(-c2cncc(N3CCC(N(C)C)CC3)c2)nn1` [I-51]: the midpoint of inhibition, the IC50, lay at 0.012 µM.
The same measure for `CNc1cncc(-c2cn(-c3cc(C(=O)Nc4cc(C(C)(C)C)on4)ccc3C)nn2)c1` [I-30]: 0.014 µM; for `Cc1ccc(C(=O)Nc2cc(C(F)(F)F)ccn2)cc1-n1cc(-c2cncc(NC3CCOCC3)c2)nn1` [I-81]: 0.01 µM; for `Cc1ccc(NC(=O)c2cc(C)n(C(C)(C)C)n2)cc1-n1cc(-c2cncc(N3CCN(C)CC3)c2)nn1` [II-38]: 0.011 µM.
Under `Cc1ccc(C(=O)Nc2cc(C(F)(F)F)ccn2)cc1-n1cc(-c2cncc(N(C)CC3CCCO3)c2)nn1` (stereo not shown) [I-59] stands 0.044 µM; under `Cc1ccc(NC(=O)c2ccc(C(C)(C)C)o2)cc1-n1cc(-c2cncc(N3CCN(C)CC3)c2)nn1` [II-15], 0.002 µM.
The same measure for `Cc1ccc(C(=O)Nc2cc(C(F)(F)F)ccn2)cc1-n1cc(-c2cncc(NC3CCOC3)c2)nn1` (stereo not shown) [I-70]: 0.011 µM.
For the compound `Cc1ccc(NC(=O)c2cc(C)n(C(C)(C)C)n2)cc1-n1cc(-c2cncc(N3CCN(C4CC4)CC3)c2)nn1` [II-34], 0.031 µM corresponded to half-maximal inhibition (IC50).
On to `Cc1ccc(C(=O)Nc2cc(C(C)(C)C)on2)cc1-n1cc(-c2cncc(N3CC(C)NC(C)C3)c2)nn1` (stereo not shown) [I-32], for which the IC50 amounted to 0.009 µM. This IC50 is about 3.4-fold lower than that of the compound before.
Regarding `CCN1CCN(c2cncc(-c3cn(-c4cc(NC(=O)c5ccc(C(C)(C)C)o5)ccc4C)nn3)c2)CC1` [II-14], inhibition was half-maximal at 0.003 µM (IC50). Compared with the last compound, the IC50 is about 3-fold lower.
Compound `Cc1ccc(NC(=O)c2cc(CNCCN(C)C)c(C(C)(C)C)o2)cc1-n1cc(-c2cncc(N3CCOCC3)c2)nn1` [II-45] returned an IC50 of 0.01 µM.
The same measure for `Cc1ccc(NC(=O)c2cc(C(C)(C)C)nn2C)cc1-n1cc(-c2cncc(N3CCOCC3)c2)nn1` [II-4]: 0.011 µM; for `Cc1ccc(NC(=O)c2ccc(C(C)(C)C)s2)cc1-n1cc(-c2cncc(N3CCOCC3)c2)nn1` [II-11]: 0.01 µM.
The same measure for `Cc1ccc(C(=O)Nc2cc(C(C)(C)C)on2)cc1-n1cc(-c2cncc(N3CCN(C4CCCC4)CC3)c2)nn1` [I-5]: 0.014 µM.
As to `COCCN1C(C)CN(c2cncc(-c3cn(-c4cc(C(=O)Nc5cc(C(C)(C)C)on5)ccc4C)nn3)c2)CC1C` (stereo not shown) [I-45], the IC50 was 0.029 µM.
The same measure for `Cc1ccc(C(=O)Nc2cc(C(F)(F)F)ccn2)cc1-n1cc(-c2cncc(N3CCC(N(C)C)C3)c2)nn1` (stereo not shown) [I-75]: 0.007 µM; for `Cc1ccc(NC(=O)c2cc(CN3CCN(C)CC3)c(C(C)(C)C)o2)cc1-n1cc(-c2cncc(N3CCOCC3)c2)nn1` [II-42]: 0.016 µM.
The compound `Cc1ccc(C(=O)Nc2cc(C(F)(F)F)ccn2)cc1-n1cc(-c2cncc(NCC3CCCO3)c2)nn1` (stereo not shown) [I-58] showed an IC50 of 0.011 µM.
In turn, `COCCN(C)c1cncc(-c2cn(-c3cc(C(=O)Nc4cc(C(C)(C)C)on4)ccc3C)nn2)c1` [I-53] registered an IC50 of 0.011 µM. This counts as double-digit nanomolar.
`Cc1ccc(C(=O)Nc2cc(C(F)(F)F)ccn2)cc1-n1cc(-c2cncc(N(C)C)c2)nn1` [I-62] gave an IC50 of 0.024 µM.
For `Cc1ccc(C(=O)Nc2cc(C(C)(C)C)on2)cc1-n1cc(-c2cncc(N3CCCCC3)c2)nn1` [I-42], the IC50 is 0.061 µM. This IC50 lies about 2.5-fold higher than the previous one.
`Cc1ccc(C(=O)Nc2cc(C(F)(F)F)ccn2)cc1-n1cc(-c2cncc(N(C)C3CCOC3)c2)nn1` (stereo not shown) [I-68] came in with an IC50 of 0.007 µM.
For `Cc1ccc(NC(=O)c2cc(C(C)(C)C)on2)cc1-n1cc(-c2cncc(N3CCN(C)CC3)c2)nn1` [II-8], half-maximal inhibition (IC50) was put at 0.005 µM.
In turn, `Cc1ccc(C(=O)Nc2cc(C(F)(F)F)ccn2)cc1-n1cc(-c2cncc(N3C[C@@H]4C[C@H]3CN4)c2)nn1` [I-71] came in with an IC50 of 0.004 µM. The IC50 values of the last two compounds are within 1.5-fold of each other.
Regarding `Cc1ccc(NC(=O)c2ccc(C(C)(C)C)s2)cc1-n1cc(-c2cncc(N3CCN(C(C)(C)C)CC3)c2)nn1` [II-29], the IC50 turned out to be 0.01 µM. Against the preceding compound, the IC50 is about 2.5-fold higher.
The same measure for `Cc1ccc(C(=O)Nc2cc(C(F)(F)F)ccn2)cc1-n1cc(-c2cncc(N3CCC3)c2)nn1` [I-57]: 0.016 µM; for `Cc1ccc(NC(=O)c2cc(C(C)(C)C)on2)cc1-n1cc(-c2cncc(N3CCOCC3)c2)nn1` [II-5]: 0.008 µM.
The same measure for `Cc1ccc(NC(=O)c2cc(C)n(C(C)(C)C)n2)cc1-n1cc(-c2cncc(N3CCCN(C)CC3)c2)nn1` [II-39]: 0.009 µM.
The compound `CCN(C)c1cncc(-c2cn(-c3cc(C(=O)Nc4cc(C(C)(C)C)on4)ccc3C)nn2)c1` [I-56] had an IC50 of 0.018 µM. This IC50 lies about 2-fold higher than the previous one.
In the case of `Cc1ccc(C(=O)Nc2cc(C(F)(F)F)ccn2)cc1-n1cc(-c2cncc(N(C)C3CCOCC3)c2)nn1` [I-69], the IC50 turned out to be 0.03 µM.
`Cc1ccc(C(=O)Nc2cc(C(C)(C)C)on2)cc1-n1cc(-c2cncc(N3CCN(CCN4CCOCC4)CC3)c2)nn1` [I-16] came in with an IC50 of 0.014 µM.
`Cc1ccc(C(=O)Nc2cc(C(C)(C)C)on2)cc1-n1cc(-c2cncc(N(C)C(C)C)c2)nn1` [I-35] showed an IC50 of 0.045 µM.
Regarding `Cc1ccc(C(=O)Nc2cc(C(F)(F)F)ccn2)cc1-n1cc(-c2cncc(N3CCNCC3)c2)nn1` [I-77], half-maximal inhibition (IC50) required 0.005 µM. This IC50 lies about 9-fold lower than the previous one.
As for `Cc1ccc(NC(=O)c2cc(CN3CCCC3)c(C(C)(C)C)o2)cc1-n1cc(-c2cncc(N3CCOCC3)c2)nn1` [II-10], the IC50 is 0.011 µM. Against the preceding compound, the IC50 is about 2.2-fold higher.
For the compound `Cc1ccc(C(=O)Nc2cc(C(C)(C)C)on2)cc1-n1cc(-c2cncc(NC3CCCC3)c2)nn1` [I-43], the IC50 was 0.038 µM.
Take `Cc1ccc(C(=O)Nc2cc(C(C)(C)C)on2)cc1-n1cc(-c2cncc(NC3CCOCC3)c2)nn1` [I-38]: half-maximal inhibition (IC50) was put at 0.01 µM.
Compound `Cc1ccc(C(=O)Nc2cc(C(C)(C)C)on2)cc1-n1cc(-c2cncc(N3CCN(CC(F)(F)F)CC3)c2)nn1` [I-31] came in with an IC50 of 0.098 µM.
Compound `Cc1ccc(C(=O)Nc2cc(C(C)(C)C)on2)cc1-n1cc(-c2cncc(N(C)CC3CCCO3)c2)nn1` (stereo not shown) [I-25] displayed an IC50 of 0.045 µM.
Regarding `C=CCN1CCN(c2cncc(-c3cn(-c4cc(C(=O)Nc5cc(C(C)(C)C)on5)ccc4C)nn3)c2)CC1` [I-6], the IC50 turned out to be 0.022 µM. This IC50 lies about 2-fold lower than the previous one.
Under `Cc1ccc(C(=O)Nc2cc(C(C)(C)C)on2)cc1-n1cc(-c2cncc(N3CCN(C)C(C)C3)c2)nn1` (stereo not shown) [I-15] stands 0.021 µM; under `Cc1ccc(NC(=O)c2ccc(C(C)(C)C)o2)cc1-n1cc(-c2cncc(N3CCN(CC4CC4)CC3)c2)nn1` [II-16], 0.002 µM; under `COCCN(C)c1cncc(-c2cn(-c3cc(C(=O)Nc4cc(C(F)(F)F)ccn4)ccc3C)nn2)c1` [I-73], 0.034 µM.
For the compound `Cc1ccc(C(=O)Nc2cc(C(C)(C)C)n[nH]2)cc1-n1cc(-c2cncc(N3CCOCC3)c2)nn1` [I-13], the IC50 was 0.012 µM.

The values are drawn from patent publication US9290507B2, “B-RAF kinase inhibitors” (Boehringer Ingelheim International GmbH, priority 2010, dated 2016).
